# Test results published in ChEMBL document CHEMBL5465560, “Selectivity Literature for EUbOPEN Chemogenomic Library” (2024).
# What was measured:
# [1] = biological target: T1, Serine/threonine-protein kinase Nek1 (Homo sapiens) (UniProt Q96PY6); assay: Selectivity interaction (KinomeScan (DiscoverX)) EUB0000229b NEK1; conditions: at 10 µM
# T1 sequence (whole entry): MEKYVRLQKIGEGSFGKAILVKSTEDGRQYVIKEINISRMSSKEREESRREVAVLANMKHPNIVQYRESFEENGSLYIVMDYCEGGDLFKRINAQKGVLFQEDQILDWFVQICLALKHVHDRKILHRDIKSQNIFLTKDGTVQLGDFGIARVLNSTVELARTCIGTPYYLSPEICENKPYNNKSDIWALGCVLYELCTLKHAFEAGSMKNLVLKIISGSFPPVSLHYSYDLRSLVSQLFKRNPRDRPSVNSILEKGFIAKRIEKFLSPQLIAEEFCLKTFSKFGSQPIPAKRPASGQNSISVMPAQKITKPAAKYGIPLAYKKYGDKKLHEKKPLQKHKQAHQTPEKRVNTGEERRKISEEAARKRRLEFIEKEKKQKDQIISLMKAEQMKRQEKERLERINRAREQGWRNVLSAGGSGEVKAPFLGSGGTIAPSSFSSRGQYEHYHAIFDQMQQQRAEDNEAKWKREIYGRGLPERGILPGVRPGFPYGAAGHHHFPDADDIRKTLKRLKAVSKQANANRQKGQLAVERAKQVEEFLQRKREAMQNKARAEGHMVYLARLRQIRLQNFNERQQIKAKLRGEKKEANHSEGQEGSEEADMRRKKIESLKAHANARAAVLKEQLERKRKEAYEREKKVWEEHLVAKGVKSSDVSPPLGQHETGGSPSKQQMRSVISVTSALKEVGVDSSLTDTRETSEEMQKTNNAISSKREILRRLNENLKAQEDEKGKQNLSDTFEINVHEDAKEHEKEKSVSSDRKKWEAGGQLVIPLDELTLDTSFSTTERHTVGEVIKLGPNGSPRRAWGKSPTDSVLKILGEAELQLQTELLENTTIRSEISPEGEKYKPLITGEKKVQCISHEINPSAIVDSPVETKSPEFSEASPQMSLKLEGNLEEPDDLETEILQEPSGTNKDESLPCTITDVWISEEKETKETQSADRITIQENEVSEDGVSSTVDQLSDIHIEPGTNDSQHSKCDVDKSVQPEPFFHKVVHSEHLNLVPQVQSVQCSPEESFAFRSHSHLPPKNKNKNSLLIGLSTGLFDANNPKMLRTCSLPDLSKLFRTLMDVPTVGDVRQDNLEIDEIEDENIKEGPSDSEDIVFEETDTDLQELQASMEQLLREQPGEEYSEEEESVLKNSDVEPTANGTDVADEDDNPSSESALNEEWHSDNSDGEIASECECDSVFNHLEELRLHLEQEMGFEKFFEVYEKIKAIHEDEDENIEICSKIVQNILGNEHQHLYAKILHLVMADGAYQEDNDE
# [2] = biological target: T2, Serine/threonine-protein kinase haspin (Homo sapiens) (UniProt Q8TF76); assay: Selectivity interaction (KinomeScan (DiscoverX)) EUB0000695a GSG2; conditions: at 100 nM
# T2 sequence (whole entry): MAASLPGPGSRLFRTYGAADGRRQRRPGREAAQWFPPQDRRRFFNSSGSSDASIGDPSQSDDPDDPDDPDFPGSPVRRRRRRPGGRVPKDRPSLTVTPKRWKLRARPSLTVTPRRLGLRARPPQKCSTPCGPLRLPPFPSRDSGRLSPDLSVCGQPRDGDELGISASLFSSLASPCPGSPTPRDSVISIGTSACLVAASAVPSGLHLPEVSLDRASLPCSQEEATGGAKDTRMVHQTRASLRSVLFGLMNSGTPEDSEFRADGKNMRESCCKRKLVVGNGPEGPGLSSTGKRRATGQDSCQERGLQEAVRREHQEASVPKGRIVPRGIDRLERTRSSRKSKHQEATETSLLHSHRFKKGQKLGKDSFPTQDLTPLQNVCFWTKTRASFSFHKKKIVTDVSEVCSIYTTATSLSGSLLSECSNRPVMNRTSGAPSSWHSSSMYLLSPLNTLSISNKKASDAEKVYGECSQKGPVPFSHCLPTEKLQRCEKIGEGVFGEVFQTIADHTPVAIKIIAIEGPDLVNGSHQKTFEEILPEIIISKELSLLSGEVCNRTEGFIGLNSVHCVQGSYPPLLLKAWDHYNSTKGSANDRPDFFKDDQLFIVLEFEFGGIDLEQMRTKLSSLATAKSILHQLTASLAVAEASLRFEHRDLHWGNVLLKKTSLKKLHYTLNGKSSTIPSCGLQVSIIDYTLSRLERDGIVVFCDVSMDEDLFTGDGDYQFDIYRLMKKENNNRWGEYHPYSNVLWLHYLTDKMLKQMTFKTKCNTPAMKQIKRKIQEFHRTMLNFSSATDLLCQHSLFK
# [3] = biological target: Ribosomal protein S6 kinase alpha-6 (Homo sapiens, UniProt Q9UK32); assay: Selectivity interaction (KinomeScan (DiscoverX)) EUB0000045b RPS6KA6; conditions: at 1 µM
# Chain of Ribosomal protein S6 kinase alpha-6 (Q9UK32 whole entry): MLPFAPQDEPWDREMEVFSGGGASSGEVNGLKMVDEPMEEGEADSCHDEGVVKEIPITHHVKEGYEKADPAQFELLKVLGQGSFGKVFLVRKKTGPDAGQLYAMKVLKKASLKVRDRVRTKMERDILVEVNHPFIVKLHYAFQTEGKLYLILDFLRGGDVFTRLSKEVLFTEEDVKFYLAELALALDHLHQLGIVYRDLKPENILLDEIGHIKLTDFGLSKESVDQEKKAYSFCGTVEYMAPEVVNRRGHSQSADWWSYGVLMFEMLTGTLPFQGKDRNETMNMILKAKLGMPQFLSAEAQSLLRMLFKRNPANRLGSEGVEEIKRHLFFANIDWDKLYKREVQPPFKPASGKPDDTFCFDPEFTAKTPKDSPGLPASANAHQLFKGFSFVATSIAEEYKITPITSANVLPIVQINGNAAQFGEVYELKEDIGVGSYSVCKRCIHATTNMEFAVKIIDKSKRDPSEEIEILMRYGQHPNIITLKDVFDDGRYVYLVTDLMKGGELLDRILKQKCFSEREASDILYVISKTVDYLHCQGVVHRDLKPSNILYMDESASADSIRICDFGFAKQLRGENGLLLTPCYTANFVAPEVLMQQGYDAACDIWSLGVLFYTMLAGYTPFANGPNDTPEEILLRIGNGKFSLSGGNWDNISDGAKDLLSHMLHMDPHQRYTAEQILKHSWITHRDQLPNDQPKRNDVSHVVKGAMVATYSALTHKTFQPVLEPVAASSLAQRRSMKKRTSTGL
# [4] = biological target: Proto-oncogene tyrosine-protein kinase receptor Ret (Homo sapiens, UniProt P07949); assay: (§1) Selectivity interaction (KinomeScan (DiscoverX)) EUB0000618a RET; conditions: at 10 µM
# Chain of Proto-oncogene tyrosine-protein kinase receptor Ret (P07949 whole entry): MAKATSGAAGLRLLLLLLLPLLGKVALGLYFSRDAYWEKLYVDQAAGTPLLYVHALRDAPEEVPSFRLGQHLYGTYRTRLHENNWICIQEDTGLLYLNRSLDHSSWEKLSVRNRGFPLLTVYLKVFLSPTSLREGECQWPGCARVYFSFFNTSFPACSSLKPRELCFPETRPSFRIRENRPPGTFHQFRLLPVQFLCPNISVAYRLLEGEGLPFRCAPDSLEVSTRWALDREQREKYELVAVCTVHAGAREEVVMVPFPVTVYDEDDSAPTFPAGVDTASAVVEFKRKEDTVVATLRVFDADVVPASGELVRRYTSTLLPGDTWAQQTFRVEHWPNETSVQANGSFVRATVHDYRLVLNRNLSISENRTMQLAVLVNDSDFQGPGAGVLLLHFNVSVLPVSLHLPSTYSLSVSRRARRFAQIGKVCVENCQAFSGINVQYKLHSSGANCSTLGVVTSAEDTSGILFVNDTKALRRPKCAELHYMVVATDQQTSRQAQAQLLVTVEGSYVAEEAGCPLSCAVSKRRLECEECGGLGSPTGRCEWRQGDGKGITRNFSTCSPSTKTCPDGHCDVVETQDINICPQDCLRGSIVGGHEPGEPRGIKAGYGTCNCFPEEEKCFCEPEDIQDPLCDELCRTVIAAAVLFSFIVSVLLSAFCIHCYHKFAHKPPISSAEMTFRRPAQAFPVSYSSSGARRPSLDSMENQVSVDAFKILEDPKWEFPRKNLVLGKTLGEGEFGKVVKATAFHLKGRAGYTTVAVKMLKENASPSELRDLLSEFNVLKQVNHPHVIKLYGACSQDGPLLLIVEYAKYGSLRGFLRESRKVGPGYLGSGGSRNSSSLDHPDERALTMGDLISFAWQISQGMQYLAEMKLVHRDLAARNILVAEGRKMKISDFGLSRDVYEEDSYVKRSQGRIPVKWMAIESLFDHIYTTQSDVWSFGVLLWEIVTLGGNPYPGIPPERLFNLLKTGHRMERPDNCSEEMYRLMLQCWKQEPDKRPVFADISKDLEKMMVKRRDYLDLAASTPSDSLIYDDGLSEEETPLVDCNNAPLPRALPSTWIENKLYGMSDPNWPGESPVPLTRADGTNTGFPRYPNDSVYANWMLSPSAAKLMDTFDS
# [5] = tested on: Proto-oncogene tyrosine-protein kinase receptor Ret (Homo sapiens), P07949 [V804L]; assay: as §1; conditions: at 10 µM
# Chain of Proto-oncogene tyrosine-protein kinase receptor Ret (Homo sapiens), P07949 [V804L] (P07949 whole entry V804L): as the sequence (P07949 whole entry) above, with V804L counted along it
# [6] = tested on: Proto-oncogene tyrosine-protein kinase receptor Ret (Homo sapiens), P07949 [V804M]; assay: as §1; conditions: at 10 µM
# Chain of Proto-oncogene tyrosine-protein kinase receptor Ret (Homo sapiens), P07949 [V804M] (P07949 whole entry V804M): as the sequence (P07949 whole entry) above, with V804M counted along it
# [7] = biological target: RAF proto-oncogene serine/threonine-protein kinase (Homo sapiens) (UniProt P04049); assay: Selectivity interaction (Kinase screening (Upstate/Millipore)) EUB0000604a RAF1
# Chain of RAF proto-oncogene serine/threonine-protein kinase (Homo sapiens) (P04049 whole entry): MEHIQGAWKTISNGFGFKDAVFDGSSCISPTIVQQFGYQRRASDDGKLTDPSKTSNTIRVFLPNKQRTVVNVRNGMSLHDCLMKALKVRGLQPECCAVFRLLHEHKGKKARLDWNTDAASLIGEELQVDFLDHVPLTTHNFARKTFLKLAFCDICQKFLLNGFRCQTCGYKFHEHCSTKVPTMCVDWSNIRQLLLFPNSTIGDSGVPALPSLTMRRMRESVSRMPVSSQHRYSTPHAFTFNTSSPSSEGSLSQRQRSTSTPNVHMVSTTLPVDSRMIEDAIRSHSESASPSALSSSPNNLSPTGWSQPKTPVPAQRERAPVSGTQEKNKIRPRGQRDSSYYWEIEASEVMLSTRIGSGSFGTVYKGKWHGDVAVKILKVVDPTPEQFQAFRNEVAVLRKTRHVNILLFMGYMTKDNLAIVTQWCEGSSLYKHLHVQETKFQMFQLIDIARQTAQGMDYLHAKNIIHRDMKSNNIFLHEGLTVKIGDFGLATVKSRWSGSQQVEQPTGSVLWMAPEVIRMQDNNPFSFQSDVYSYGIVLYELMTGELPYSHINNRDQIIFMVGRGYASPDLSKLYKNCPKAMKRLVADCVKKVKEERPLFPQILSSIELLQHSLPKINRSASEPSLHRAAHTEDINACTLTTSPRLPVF
# [8] = biological target: Hepatocyte growth factor-like protein (Homo sapiens) (UniProt P26927)
# [9] = biological target: Ribosomal protein S6 kinase alpha-4 (Homo sapiens) (UniProt O75676); assay: Selectivity interaction (KinomeScan (DiscoverX)) EUB0001619a RPS6KA4; conditions: at 1 µM
# Chain of Ribosomal protein S6 kinase alpha-4 (Homo sapiens) (O75676 whole entry, looked up): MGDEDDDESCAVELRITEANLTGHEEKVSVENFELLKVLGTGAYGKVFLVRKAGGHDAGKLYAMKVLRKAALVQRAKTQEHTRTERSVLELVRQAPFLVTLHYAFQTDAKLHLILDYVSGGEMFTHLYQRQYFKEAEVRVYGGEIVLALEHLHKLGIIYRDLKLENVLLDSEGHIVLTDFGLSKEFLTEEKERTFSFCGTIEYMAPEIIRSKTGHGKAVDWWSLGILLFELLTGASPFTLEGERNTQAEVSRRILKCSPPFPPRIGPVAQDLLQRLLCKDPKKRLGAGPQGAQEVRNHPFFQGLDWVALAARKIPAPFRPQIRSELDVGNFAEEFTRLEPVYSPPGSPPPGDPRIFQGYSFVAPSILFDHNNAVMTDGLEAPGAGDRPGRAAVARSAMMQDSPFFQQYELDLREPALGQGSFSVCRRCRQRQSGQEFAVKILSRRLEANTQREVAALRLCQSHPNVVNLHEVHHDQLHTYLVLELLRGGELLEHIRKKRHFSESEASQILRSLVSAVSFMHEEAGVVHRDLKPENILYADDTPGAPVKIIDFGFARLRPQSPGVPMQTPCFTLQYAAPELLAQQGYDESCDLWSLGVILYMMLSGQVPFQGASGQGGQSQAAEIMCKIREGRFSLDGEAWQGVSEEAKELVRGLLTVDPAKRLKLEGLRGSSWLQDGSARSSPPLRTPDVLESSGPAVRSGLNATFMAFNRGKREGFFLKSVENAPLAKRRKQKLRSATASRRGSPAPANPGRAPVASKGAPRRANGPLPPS
smiles,measurement,setting,value
COc1cc(N(C)c2ccnc3ccc(C(F)(F)F)cc23)cc(OC)c1OC,% binding,[1],78%
Cc1cc(F)c(C(=O)Nc2cccc(-c3nncn3C(C)C)n2)cc1-n1cnc(C2CC2)c1,% of control,[2],100%
C=CC(=O)Nc1cc(-n2c(=O)ccc3cnc4ccc(-c5ccc(NS(C)(=O)=O)cc5)cc4c32)ccc1C,% of control,[3],56%
O[C@H]1CC[C@H](Nc2ncc3nc(Nc4c(F)cc(F)cc4F)n([C@H]4CCOC4)c3n2)CC1,% of control,[4],100%
same,% of control,[5],100%
same,% of control,[6],96%
Cc1cnc(Nc2ccc(F)cc2Cl)nc1-c1c[nH]c(C(=O)N[C@H](CO)c2cccc(Cl)c2)c1,% of inhibition,[7],3%
same,% of inhibition,[8],4%
N#Cc1cccc(-c2c[nH]c3ncnc(N4CCOCC4)c23)c1,% of control,[9],100%
